How the values were obtained:
Format in all cases: physicochemical
[1] = Dynamic vapor sorption experiment (hygroscopicity); conditions: 25°C, reducing humidity to 0% and increasing to 40%
Procedure: Vapour sorption experiments were performed in the instrument SPSx-1µ (Projekt Messtechnik, Ulm, Germany) at temperature of 25°C and the humidity cycles as shown below.
A dynamic vapor sorption experiment was performed with Ruxolitinib besylate. At a constant temperature of 25°C, the substance was exposed to two cycles of varying relative humidity (rh) (40% → 0% →95% (75% r.h. kept constant for 48h) → 0% →40%). Figure 3a presents the relative weight change as a function of time and relative humidity and in […] changes are illustrated as a function of humidity.

[2] = Storage stability: chemical purity by HPLC/UV; conditions: for Chemical purity ([area-%] at λ=230 nm): 40°C/75% rh
Procedure: (§1) Samples were stored in closed and open containers at 25°C/60% rh and at 40°C/75% rh and analyzed after 4, 8 and 12 weeks.
The results of determination of the chemical purity during storage at 40°C/75% rh are summarized. […] Therefore, the analysis of samples, which were stored at 25°C/60% rh, was omitted.

[3] = pH-dependency of solubility at 37°C; conditions: for solubility: 37°C
From the text: The intestinal tract obeys different pH ranges, which vary from pH 1 to 2 of the empty stomach, pH 3-5 for stomach filled with chyme, to pH 5-7.5 of the colon.

[4] = Storage stability: solid-state stability by XRPD analysis
Procedure: The sample was analyzed on a D8 Advance X-ray powder diffractometer (Bruker-AXS, Karlsruhe, Germany). The sample holder was rotated in a plane parallel to its surface at 20 rpm during the measurement. The raw data were analyzed with the program EVA (Bruker-AXS, Germany). The samples were layered onto a silicon specimen holder.
as §1
The solid-state stability was investigated by XRPD analysis for 25°C/60% rh. The results of evaluation are summarized.

N#CC[C@H](C1CCCC1)n1cc(-c2ncnc3[nH]ccc23)cn1 [Ruxolitinib besylate, Ruxolitinib benzenesulfonate]
weight after desorption and re-sorption (in words) [1]: resulted in the initial starting weight
chemical stability during storage (in words) ([2]; 40°C/75% rh, 4, 8 and 12 weeks): remained chemically stable
Chemical purity ([area-%] at λ=230 nm) ([2]; closed container, 4 weeks): 98.14% area-%
Chemical purity ([area-%] at λ=230 nm) ([2]; closed container, 8 weeks): 98.27% area-%
Chemical purity ([area-%] at λ=230 nm) ([2]; closed container, 12 weeks): 98.06% area-%
Chemical purity ([area-%] at λ=230 nm) ([2]; closed container, t = 00 (= initial)): 98.16 area-%
Chemical purity ([area-%] at λ=230 nm) ([2]; open container, 4 weeks): 98.16% area-%
Chemical purity ([area-%] at λ=230 nm) ([2]; open container, 8 weeks): 98.21% area-%
Chemical purity ([area-%] at λ=230 nm) ([2]; open container, 12 weeks): 98.22% area-%
Chemical purity ([area-%] at λ=230 nm) ([2]; open container, t = 00 (= initial)): 98.16 area-%
solubility at 0.5 h ([3]; 0.1m hcl, pH 1.2, 37°C, 0.1M HCl pH1.2, 0.5 h): 9600 µg/mL
solubility at 1 h ([3]; 0.1m hcl, pH 1.2, 37°C, 0.1M HCl pH1.2, 1 h): 9600 µg/mL
solubility at 24 h ([3]; 0.1m hcl, pH 1.2, 37°C, 0.1M HCl pH1.2, 24 h): 9300 µg/mL
solubility at 1 h ([3]; 20mm naoac, pH 4.5, 37°C, 20mM (NaOAc / NaAc) -pH 4.5, 1 h): 7100 µg/mL
solubility ([3]; 20mM (NaOAc / NaAc) -pH 4.5, 0.5 h): 6.7 mg/mL
solubility ([3]; 20mM (NaOAc / NaAc) -pH 4.5, 24 h): 6.1 mg/mL
solubility ([3]; 50mM KH2PO4 pH 6.8, 24 h): 5.8 mg/mL
solubility at 0.5 h ([3]; 50mm kh2po4, pH 6.8, 37°C, 50mM KH2PO4 pH 6.8, 0.5 h): 6800 µg/mL
solubility at 1 h ([3]; 50mm kh2po4, pH 6.8, 37°C, 50mM KH2PO4 pH 6.8, 1 h): 7000 µg/mL
stability upon storage (in words) ([4]; 25°C and 60% relative humidity (RH), up to at least 12 weeks): stable
solid-state stability by XRPD (in words) ([4]; 25°C/60% rh, throughout the observation period): remained unchanged
